Experimental data as given in ChEMBL document CHEMBL5137070, “N-2-(Phenylamino) Benzamide Derivatives as Dual Inhibitors of COX-2 and Topo I Deter Gastrointestinal Cancers via Targeting Inflammation and Tumor Progression” (J Med Chem, 2022).
pIC50: −log10 of the molar value. The source made the active and inactive calls. No cut-off for these calls is given here.

How the values were obtained:
RKO [1] = test: Effect on cell morphology in human RKO cells assessed as appearance of smaller cells at 10 uM incubated for 48 hrs by giemsa staining based microscopic analysis; format: functional
CT26.WT [2] = test: Antiproliferative activity against mouse CT26.WT cells assessed as cell viability at 1.23 uM for 48 hrs by MTT assay; format: functional; conditions: read-out: Activity
[3] = Tmax in Sprague-Dawley rat at 100 mg/kg, ip and measured upto 8 hrs by LC-MS/MS analysis; format: ADME, organism-based; conditions: in vivo
HGC-27 [4] = test: Induction of apoptosis in human HGC-27 cells assessed as increase in caspase-3 activity at 1.1 to 10 uM incubated for 36 hrs by flow cytometry; format: functional, cell-based; conditions: dose 1.1-10 µM, DDE = dose-dependent effect
RKO [5] = test: Effect on cell morphology in human RKO cells assessed as condensed morphology at 10 uM incubated for 48 hrs by giemsa staining based microscopic analysis; format: functional
[6] = Toxicity in BALB/c mouse xenografted with mouse CT26.WT assessed as change in body weight at 100 mg/kg, ip twice daily and measured upto 14 days relative to control; format: organism-based; conditions: in vivo, 336 h, time < 14 day
SGC-7901 = test: Antiproliferative activity against human SGC-7901 cells assessed as reduction in cell proliferation incubated for 48 hrs by MTT assay; format: functional, cell-based; conditions: SGC-7901, 48 h
HGC-27 [7] = test: Anti-metastasis activity against human HGC-27 cells assessed as reduction in MMP-9 expression level at 3.3 to 10 uM for 24 hrs by western blot analysis; format: functional, cell-based; conditions: dose 3.3-10 µM
RKO [8] = test: Induction of apoptosis in human RKO cells assessed as increase in caspase-3 activity at 1.1 to 10 uM incubated for 36 hrs by flow cytometry; format: functional, cell-based; conditions: dose 1.1-10 µM, DDE = dose-dependent effect
HGC-27 [9] = test: Induction of apoptosis in human HGC-27 cells assessed as increase in caspase-3 activity at 10 uM incubated for 36 hrs by flow cytometry (Rvb= 9.39%); format: functional
HGC-27 [10] = test: Antiproliferative activity against human HGC-27 cells assessed as reduction in cell proliferation incubated for 48 hrs by MTT assay; format: functional, cell-based; conditions: HGC-27, 48 h
HGC-27 [11] = test: Induction of apoptosis in human HGC-27 cells assessed as increase in caspase-3 activity at 1.1 uM incubated for 36 hrs by flow cytometry (Rvb= 9.39%); format: functional
RKO [12] = test: Induction of apoptosis in human RKO cells assessed as increase in caspase-3 activity at 3.3 uM incubated for 36 hrs by flow cytometry (Rvb= 1.08%); format: functional
CT26.WT [13] = test: Anti-tumor activity against mouse CT26.WT xenografted in BALB/c mouse assessed as decrease in MMP-9 expression level in tumor tissue at 100 mg/kg, ip twice daily and measured after 14 days by immunohistochemical analysis; format: functional, organism-based; conditions: time 14.0 day
RKO [14] = test: Anti-migration activity against human RKO cells assessed as decrease in cell migration rate at 0.37 uM for 48 hrs by crystalline violet staining based assay; format: functional
RAW264.7 = test: Inhibition of LPS induced NO production in mouse RAW264.7 cells at 6.6 uM incubated for 1 hrs followed by LPS stimulation and measured after 24 hrs by Griess reagent based assay; format: functional, cell-based; conditions: time 25.0 hrs
CT26.WT [15] = test: Antiproliferative activity against mouse CT26.WT cells assessed as reduction in cell proliferation incubated for 48 hrs by MTT assay; format: functional, cell-based
CT26.WT [16] = test: Anti-tumor activity against mouse CT26.WT xenografted in BALB/c mouse assessed as decrease in tumor size at 100 mg/kg, ip twice daily and measured upto 14 days relative to control; format: functional, organism-based; conditions: time <= 14.0 day
[17] = Metabolic stability in rat whole blood assessed as parent compound remaining at 23.76 to 536 ug/mL and measured upto 4 hrs by HPLC analysis; format: ADME, tissue-based; conditions: at 23.76 to 536 µg/mL, dose 23.76-536 µg/ml, read-out: Stability
[18] = Toxicity in BALB/c mouse xenografted with mouse CT26.WT assessed as pathological changes in heart at 100 mg/kg, ip twice daily and measured after 14 days by hematoxylin and eosin staining based microscopic analysis; format: organism-based; conditions: in vivo, 336 h, time 14 day
HGC-27 [19] = test: Induction of apoptosis in human HGC-27 cells assessed as increase in Bax/Bcl-2 ratio expression at 1.1 to 10 uM incubated for 24 hrs by western blot assay; format: functional, cell-based; conditions: dose 1.1-10 µM
RKO [20] = test: Induction of apoptosis in human RKO cells assessed as increase in cleaved caspase-3 expression at 1.1 to 10 uM incubated for 24 hrs by western blot assay; format: functional, cell-based; conditions: dose 1.1-10 µM
CT26.WT [21] = test: Anti-tumor activity against mouse CT26.WT xenografted in BALB/c mouse assessed as decrease in COX-2 expression level in tumor tissue at 100 mg/kg, ip twice daily and measured after 14 days by immunohistochemical analysis; format: functional, organism-based; conditions: time 14.0 day
RKO [22] = test: Effect on cell morphology in human RKO cells assessed as contracted nucleus at 10 uM incubated for 48 hrs by giemsa staining based microscopic analysis; format: functional
[23] = Cmax in Sprague-Dawley rat at 100 mg/kg, ip and measured upto 8 hrs by LC-MS/MS analysis; format: ADME, organism-based; design: time < 8 hrs, dose 100 mg/kg, route ip; conditions: in vivo
[24] = Toxicity in BALB/c mouse xenografted with mouse CT26.WT assessed as pathological changes in spleen at 100 mg/kg, ip twice daily and measured after 14 days by hematoxylin and eosin staining based microscopic analysis; format: organism-based; conditions: in vivo, 336 h, time 14 day
[25] = Acute toxicity in Kunming mouse assessed as mortality at 100 mg/kg,ip and measured upto 14 days; format: organism-based; conditions: in vivo, 336 h, time < 14 day

## Cc1c(Cl)cccc1Nc1ccc(F)cc1C(=O)NCc1ccc(O)c(O)c1
RKO [1]
  Activity: Active
CT26.WT [2]
  viability at 1.23 µM: > 80%
[3]
  Tmax: 40.2 min
HGC-27 [4]
  Activity: Dde
RKO [5]
  Activity: Active
[6]
  Activity: Non-Toxic
SGC-7901
  pIC50: 4.83
HGC-27 [7]
  Activity: Active
RKO [8]
  Activity: Dde
HGC-27 [9]
  Activity: 69.46%
HGC-27 [10]
  pIC50: 5.33
HGC-27 [11]
  Activity: 57.64%
RKO [12]
  Activity: 55.24%
CT26.WT [13]
  Activity: Active
RKO [14]
  Activity: Active
RAW264.7
  inhibition: Active
CT26.WT [15]
  pIC50: 5.52
CT26.WT [16]
  Activity: Active
[17]
  remaining at 4 h: > 90%
[18]
  Activity: Non-Toxic
HGC-27 [19]
  Activity: Active
RKO [20]
  Activity: Active
CT26.WT [21]
  Activity: Active
RKO [22]
  Activity: Active
[23]
  Cmax: 20200 ng/mL
[24]
  Activity: Non-Toxic
[25]
  Activity: Non-Toxic
